In test [1] the test system is human lymphocytes. The test is described as follows: Viable cell counts (trypan blue) during ConA stimulation of human lymphocytes. The test is classed as cell-based. To be noted: ConA 10 μg/ml, manual trypan blue counts, FIG. 11. As for the experimental part:
FIG. 11 is a diagram depicting the effect of a 5HT type 1 receptor antagonist and a 5HT type 2 receptor antagonist on the cell numbers occurring during the mitogenic stimulation of human lymphocyte activation. The cells were stimulated with 10 μg/ml ConA. The cells were repurified on a Ficoll gradient prior to addition of the inhibitor. Trypan blue exclusion was used to count the viable cells.
To further assess the effects of propanolol (a general 5-HTR 1 antagonist) and risperidone (a general 5-HTR 2 antagonist) on the mitogenically stimulated lymphocyte culture, the number of viable cells were manually counted as the assay progressed. If the cells were not stimulated, there was no detectable change in the number of viable cells. When the cells were stimulated with ConA, a small lag period was observed and the beginning of the growth phase compared to the stimulation response curve observed in the absence of the inhibitor. […] Apparently, there is no decrease or increase compared with the starting cell numbers. It is unclear whether or not this is due too anergy, an inability to initiate the activation pathway, or both. […] Thus, based on the data presented here, the classes of antagonists that inhibit the type 2 serotonin receptors appear to be rate limiting for the lymphocyte activation processes.

Test [2] relates to allogeneic CTL response to P815 cells. The test is described as follows: Murine allograft model, CTL killing of P815 target cells by splenocytes. Type of test: in vivo, C57BL/6J mice. To be noted: tail vein bolus 200 μg/injection on days 6 and 8, sacrificed day 14, FIG. 13. As for the experimental part: The in vivo validation screen used was an art-recognized murine allogeneic rejection model as described in Zhan et al., 2000. For this assay, a complete MHC miss-match system was employed wherein 5×10^6 P815 cells ([H-2^d] DBA/2 mastocytoma) were injected into the peritoneal cavity of C57BL/6J (H-2^b) mice on day 0 of the experiment. These mice typically generate a strong cytotoxic T lymphocyte (CTL) reaction in response to P815 cells. Following the initial P815 cell inoculation, the mice were allowed to develop a CTL response (this usually takes about 10-14 days). […] Mice were then sacrificed on day 14 of the experiment as indicated in the figures; and the allogeneic CTL response was assayed as described previously (Tretiakova et al., 2000, Nature Biotechnology 18:984-988). The primary spleen cells from the treated and untreated animals were used in the direct CTL readout. Freshly obtained primary spleen cells were incubated with the [^3H] labeled target cells (P815 cells) at 100:1, 50:1, 25:1, and 12.5:1 ratios for 3.5 hours at 37° C. and harvested using a PHD harvester. The percentage of specific killing was determined using the formula % kill=(S−E)/S, where S is the amount of the DNA retained by the target cells in the absence of the effector cells and E is the amount of retained DNA in the presence of the effector cells (expressed in counts per minute; cpm).
This is an art-recognized model of allograft […] rejection based on that described by […]. (2000). In this model, there is a complete MHC mismatch between the P815 cells (H-2^d) and the C57BL6 mouse (H-2^b), thus ensuring an aggressive immune response. The data disclosed in FIG. 13, depicts results of experiments that included 6 treatment groups, each group consisting of three mice. Each mouse received 5×10^6 P815 cells injected into the peritoneal cavity on day 0 of the study. The first group was an untreated control group, which was used to establish the baseline response of the mice against the allogeneic stimulus. These mice, without any further treatments, were sacrificed, as were the other treatment groups, on day 14 of the study and their splenocytes assayed for target-specific killing of the P815 cells.
The average kill observed for the untreated group was about 45% at an effector to target ratio of 100:1. […] The timing of the drug administration was selected to ensure that the T cells were fully activated prior to the drug treatment. The third group was treated with propanolol, a 5HT-1 antagonist. All of the 5HT receptor antagonist-treated groups were treated as described for the risperidone-treated group. The fourth group was treated chronically with CyclosporinA. The Cyclosporin A was administered ip at a dosage of 100 μg/injection starting two days prior to the onset of the study, i.e., at day-2, and the injections were continued on a daily basis for the duration of the study.
Finally, studies conducted in vivo using the CD8-dependent allograft rejection model, in which P815 cells (a rapidly growing cell line taken from a mastocytoma in a DBA mouse), were expanded and used to create a robust rejection response in a C57BL6 mouse. In this study the mice received 5×10^6 P815 cells injected into their peritoneal cavity on day 0 of the study. The first group was an untreated control group (naïve animals), used to acquire the baseline response of the mice against the allogeneic stimulus. The positive controls were treated with the allogeneic cells without any further treatments. These animals were used to assess the induced allogeneic response against the P815 cells.
All treatment groups were sacrificed on day 14 of the study and their splenocytes assayed for target-specific killing of the P815 cells (the averaged overall kill observed for the positive control group was about 45% at an effector to target ratio of 100:1). The serotonin-specific compounds were administered via tail vein injection (300 μg/injection) on days 5 and 7 of the study. […]

In another test the test system is cells. The test is described as follows: Cell morphology change on inhibition of serotonergic signalling. The test is classed as cell-based. The settings on record: after 24 hours of treatment, FIG. 30. As to the method:
Briefly, cells were incubated with a 5-HTR antagonist (e.g., a selective type 1B inhibitor SD 216641) and the effects of treatment were assessed after 24 hours. […] For instance, detection of cell changes can be assessed using optical instruments (electron and light microscopy, as well as fluorescence activated cell sorting, and the like), or any other device that assesses and detects changes in cell size, density, morphology, and the like. Such devices are well known in the art and are not recounted here.

In test [3] the test system is RPMI 8226 multiple myeloma cells. The test is described as follows: RPMI 8226 cell proliferation / viability (trypan blue, MTT, 3H-thymidine). The test is classed as cell-based, human. To be noted: low dose-titration, FIGS. 23, 24 and 25. As for the experimental part: The human plasmacytoma (multiple myeloma) cell line, RPMI 8226 (American Type Culture Collection, Manassas, Va.), was cultured in RPMI 1640 supplemented with 10 mM HEPES, 1 mM sodium pyruvate, 4.5 g/L glucose, 1.5 g/L bicarbonate and 20% FBS (non-heat inactivated).
Cell proliferation was assayed by three methods—Trypan Blue Exclusion was used to quantify the number of viable cells in culture; 3-(4,5-dimethylthiazol-2-yl)-2,5-diphenyl tetrazolium bromide (MTT) reduction was used to assay mitochondrial activity (and thus cell viability); and ^3H-Thymidine uptake was employed to assay for active DNA synthesis.
The following 5-HT receptor modulating compounds were tested for their effects on RPMI 8226 cells in vitro cultured at the described densities and across the indicated concentration ranges.

The subject of a further test is RPMI-8226 cells. The test is described as follows: Hematoxylin-eosin / bis-benzamide staining of RPMI-8226 cytospins. Type of test: cell-based, human. As to the method: 2.0×10^5 RPMI-8226 cells were cultured, in 6-well culture plates, in the presence of the indicated drug concentrations, in a total of 5 mL RPMI-1640 supplemented with 10% FBS. Each well was harvested in its entirety and divided into two identical samples for cytospins.
1.0×10^5 RPMI-8226 cells from each treatment group were loaded into Cyto-funnels and centrifuged at 500 rpm for 4 minutes with medium acceleration. Slides were then fixed through graded methanol in PBS (100%, 5 minutes; 80%, 5 minutes; 50%, 5 minutes), washed for 5 minutes in PBS and stored in PBS at 4° C. until stained.
Cytospun slides were stained with Hematoxylin and Eosin, followed by the nuclear stain, bis-benzamide, rinsed and mounted according to standard staining protocols. Slides were visualized under both brightfield and fluorescent light to generate matched images of the same slide field (see, e.g., FIGS. 28 and 29).

Test [4] relates to human lymphocytes. As to the kind of experiment: Human mitogenic (ConA) stimulation, 3H-thymidine incorporation. To be noted: harvested 72 hours. The test is classed as cell-based. As for the experimental part: Blood from healthy volunteers was drawn using venipuncture, using Vacutainer collection sets and heparinized collection vials. The blood was diluted 1:1 using HBSS to a total volume of 30 ml in 50 ml conical tubes (Fisher Scientific, Co., Pittsburgh, Pa.). […] Cells from the buffy coats were collected and the residual Histopaque was washed away using repeated centrifugations in HBSS. After washes, cells were resuspended at 5 million cells per ml in RPMI, supplemented with 2% FBS. To remove adherent cells, the suspension was plated onto a 6 well flat-bottom plate (Corning Costar), 3 ml/well, and incubated for 2 hours at 37° C., 5% CO2. Non-adherent cells were harvested after this incubation, were counted and resuspended in RPMI supplemented with 10% human serum (Sigma).
All drugs were pre-plated before the cell suspension was added onto each well of a 96-well round-bottom plate. All experimental conditions were assayed in at least triplicate. Cells suspended in RPMI supplemented with 10% human serum were plated at 100,000 cells per well to a final volume of 200 μl. […] Control samples received no ConA stimulation. The plates were incubated at 37° C. and 5% CO2. One microCurie of tritiated thymidine was added to each well after 60 hours, and the plates were harvested 12 hours later.
For orientation: Dividing cells build labelled thymidine or BrdU into new DNA.

Test [5] relates to human lymphocytes. As to the kind of experiment: Human mixed lymphocyte reaction (allogeneic stimulation). The settings on record: harvested 120 hours. The test is classed as cell-based. The source says:
Blood from two healthy, non-related, donors was taken as described above. Peripheral blood mononuclear cells were isolated as described previously elsewhere. The adherent cells were separated from the suspension cells as described previously for both donors. Suspension cells from both donors (donors A and B) were used as responders. The remaining adherent cells from each of the donors were used as stimulators against a different donor (suspension A against adherent B and adherent A against suspension B). The stimulator cells were irradiated at 35 Gy. Drugs were pre-plated onto 96 well, U-bottom plates in triplicate. 200,000 “stimulator” cells in RPMI supplemented with 10% human serum were then plated in each well. 200,000 “responder” cells in the same medium were then plated over stimulators to a final volume of 200 μl/well. Background controls received either no stimulator cells, or no responder cells. The plates were incubated at 37° C. and 5% CO2. 1 μCi of tritiated thymidine was added to each well after 4.5 days, and the plates were harvested 12 hours later.

For `CC(C)NC[C@H](O)COc1cccc2ccccc12` (racemic) [propanolol], the “effect on number of viable cells” value in the test with human lymphocytes [1] was “prevents the cell from growing”. Further, the “effect on allograft (CTL) response” value in test [2] is given as “did not protect the mice from the allograft rejection response”.
Take `COc1ccc(NC(=O)c2ccc(-c3ccc(-c4noc(C)n4)cc3C)cc2)cc1OCCN(C)C` [SB 216641]: the “change in cell morphology” value with cells is listed as “an increase in cell size”. The “effect on growth of RPMI-8226 cells” value in test [3] is “completely inhibited the growth of the cancer cells”. In addition, the “chromatin / nuclear morphology” value in the test on RPMI-8226 cells (50 μM, 9 hour treatment, FIGS. 28, 29) was “Extensive chromatin condensation and nuclear fragmentation”. In addition, the “induction of programmed cell death” value in the test with RPMI-8226 cells (FIGS. 28 and 29) is “induced programmed cell death comparable to that induced by the topoisomerase I inhibitor, camptothecin”. The “effect on activation / proliferative response” value is “complete inhibition of the activation response” in the test on human lymphocytes [4] (ConA 5 μg/ml, FIGS. 7A, 8A, 9A) and “complete inhibition of the activation response” in the test with human lymphocytes [5] (allogeneic stimulation, FIGS. 7B, 8B, 9B). For the same compound, the IC50 in the test on human lymphocytes [4] (ConA (5 μg/ml) stimulation of human lymphocytes, FIG. 7A, read-out: apparent IC50) is roughly 200 nM; in the test on human lymphocytes [5] (allogeneic stimuli (mixed lymphocyte reaction), FIG. 7B, read-out: apparent IC50) it was roughly 50 nM.
`Cc1nc2n(c(=O)c1CCN1CCC(c3noc4cc(F)ccc34)CC1)CCCC2` [risperidone]: the “effect on number of viable cells” value in the test on human lymphocytes [1] was “caused a brief cell increase, followed by the elimination of the cells in culture”. Moreover, the “effect on allograft (CTL) response” value in test [2] was “inhibited the allograft response to varying degrees”.

Usually IC50 stands for the concentration that gives 50% inhibition.

Values taken from US6979447B2, “Immunomodulation and effect on cell processes relating to serotonin family receptors” (Philadelphia Health and Education Corporation, priority 2001, dated 2005).
